Results taken from PMC10163008 (Nature Communications, 2023).
Where “and” joins values, the source holds several entries; their conditions need not be identical. Identical values can stand only once.

Tests used:
[1] = test system: patients with ALK-driven relapsed/refractory neuroblastoma; assay: Serial ctDNA profiling (FoundationACT / FoundationOne Liquid CDx) and clinical response in the NANT phase 1 lorlatinib trial; settings: Group 3 (ALK undetectable) patients, all responded
Method: Optional blood sampling was prospectively performed at predefined time points including pretreatment, after courses 2,4,6, and then after every 4th course and at disease progression. Patients <18 years of age were treated across 5 dose levels (cohort A1).
Blood samples for circulating tumor DNA profiling were drawn prior to enrollment, after courses 2, 4, and 6, and then after every 4 courses of treatment for the duration of patient participation in the trial. Forty-six patients were evaluable for this ctDNA study.
16-20 ml of whole blood was drawn from each patient and sent to Foundation Medicine in Streck tubes for ctDNA profiling.
Sequencing data were analyzed for the presence of short variants (single base substitutions and short insertions/deletions), copy number amplifications and homozygous deletions, and detectable gene rearrangements. […]
For most samples, we were able to estimate the ctDNA quantity using the comprehensive tumor fraction (CTF) method, using established computational methods[46],[47]. For samples in which no ALK was detected, we analyzed CTF to determine if any ctDNA was found in the cell-free DNA sequenced. For samples where CTF could not be calculated, MSAF was manually assessed to determine the fraction of ctDNA content[48]. […]

[2] = test system: CHLA-20 cells with ALK R1275Q/G1202R (CRISPR, in cis); assay: Cell viability assay (Cell Titer-Glo, 120 h); assay type: cell-based, human
[3] = test system: CHLA-20 cells (ALK R1275Q, parental); assay: Cell viability assay (Cell Titer-Glo, 120 h); assay type: cell-based, human; settings: cell viability after 120 h of treatment

C[C@H]1Oc2cc(cnc2N)-c2c(nn(C)c2C#N)CN(C)C(=O)c2ccc(F)cc21 [lorlatinib, (10R)-7-amino-12-fluoro-2,10,16-trimethyl-15-oxo-10,15,16,17-tetrahydro-2H-8,4-(metheno)pyrazolo[4,3-h][2,5,11]-benzoxadiazacyclotetradecine-3-carbonitrile]
duration of response [1]: 4 to 48 cycles of therapy
cell viability ([2]; [lorlatinib] 33, 120 h, exp #1-#9): 104.185 and 94.5372 and 95.8368 and 98.7284 and 103.246 and 102.304 and 104.304 and 98.5652
IC50 ([2]; cell viability after 120 h of treatment): 318 ± 58 nM
IC50 [3]: 15 ± 4 nM
